In patent US20230272016A1, “PEPTIDES FOR IMMUNOTHERAPY” (Second Genome, Inc., priority 2020, published 2023):

Each sequence was assayed on human T cells (assay: Human T cell activation assay (anti-CD3 plus peptide, cytokine secretion)). Details: Table 10; combinatorial library variants of SEQ ID NO:1.
Type: cell-based
Description: FIGS. 11 and 12 show 150 peptide variants of the SG-3-0020 1-29 aa N-terminal+middle region, derived from a combinatorial phage display library, were tested for activation potential of human T cells. […] Increase in cytokine secretion was concordant in 3 donors.
For example, PBMCs were obtained from individual human donors.
T-cell activation was also determined as described previously (see above and International Application No. PCT/US2020/012431). […] Separate N-, MID, and C-terminal fragments lose activity. The data support that both N- and middle region are minimally required for binding and activation to T cells.

Sequence | mean_ES_IFN-γ
MVSTAKGKTHDHYPSGRYRPPPWHDWRFS [SEQ ID NO: 29] | 1.052
PVSAAKGKWHDHNWSGRMRPPPWHDWRAR [SEQ ID NO: 18] | 1.169
VTSTAKGKTHDHNWSGRYRPPPWHDWRAR [SEQ ID NO: 9] | 1.28
WASGAKGKWHDHYGGGRYRDPGWHDWRGS [SEQ ID NO: 20] | 1.135
WGSAAKGKTHDHWPSGRHRDPPWHDWRVR [SEQ ID NO: 31] | 1.044
WGSAAKGKTHDHWPSGRYRDPKWHDWRVS [SEQ ID NO: 21] | 1.134
WGSAAKGKTHDHYGSGRYRDPPWHDWRAR [SEQ ID NO: 32] | 1.038
WGSGAKGKTHDHWGSGRWRDPGWHDWRGS [SEQ ID NO: 5] | 1.324
WPSAAKGKTHDHNPSGRMRPPPWHDWRFS [SEQ ID NO: 26] | 1.078
WPSGAKGKWHDHYPGGRMRPPPWHDWRFS [SEQ ID NO: 4] | 1.351
WSSAAKGKTHDHWGGGRYRPPPWHDWRAS [SEQ ID NO: 17] | 1.172
WSSGAKTKWHDHYGSGRHRDPKWHDWRGS [SEQ ID NO: 19] | 1.147
WSSTAKGKTHDHWPSGRYRPPPWHDWRAR [SEQ ID NO: 35] | 1.009
WVSAAKGKTHDHWGSGRHRDPPWHDWRAR [SEQ ID NO: 30] | 1.052
WVSAAKGKWHDHYGSGRMRDPPWHDWWGS [SEQ ID NO: 24] | 1.104

Same assay, conditions: Table 11; 150 combinatorial library variants of SEQ ID NO:1

Sequence | mean_ES_IFN-γ
MVSTAKGKTHDHYGSGRYRPPPWHDWRGS [SEQ ID NO: 340] | 0.276
MVSTAKGKTHDHYPSGRYRPPPWHDWRFS [SEQ ID NO: 29] | 1.052
PASAAKGKTHDHWPSGRHRDPPWHDWRGS [SEQ ID NO: 353] | −0.2788
PASAAKGKWHDHNPSGRMRDPPWHDWWGS [SEQ ID NO: 327] | 0.4162
PASGAKGKTHDHYPSGRWRDSGWHDWRFS [SEQ ID NO: 313] | 0.5536
PASGAKTKWHDHNPSGRHRDPPWHDWRVS [SEQ ID NO: 328] | 0.3967
PLSAAKGKWHDHYWSGRMRDPPWHDWRVS [SEQ ID NO: 260] | 0.8986
PLSAAKTKTHDHNWSGRYRPPPWHDWRAR [SEQ ID NO: 282] | 0.7514
PLSAAKTKWHDHYGGGRMRPPPWHDWRFS [SEQ ID NO: 265] | 0.8534
PSSAAKGKTHDHYPGGRYRDPGWHDWRGR [SEQ ID NO: 343] | 0.2141
PSSAAKGKTHDHYPGGRYRPPPWHDWRVS [SEQ ID NO: 264] | 0.8772
PTSAAKGKTHDHYPGGRYRDPPWHDWRAS [SEQ ID NO: 356] | −0.5055
PVSAAKGKTHDHWPGGRMRDPPWHDWRAS [SEQ ID NO: 329] | 0.3768
PVSAAKGKWHDHNWSGRMRPPPWHDWRAR [SEQ ID NO: 18] | 1.169
PVSAAKGKWHDHYPSGRWRDPPWHDWRAS [SEQ ID NO: 321] | 0.4882
SASAAKGKTHDHWGGGRHRDPPWHDWRFS [SEQ ID NO: 341] | 0.2746
SPSGAKGKTHDHYPSGRMRPPPWHDWRFS [SEQ ID NO: 261] | 0.8871
SPSGAKTKWHDHNPGGRMRPPPWHDWRAR [SEQ ID NO: 324] | 0.4459
SSSGAKGKWHDHNPSGRWRDPGWHDWRVR [SEQ ID NO: 325] | 0.4435
SSSGAKGKWHDHYGGGRHRDPPWHDWRGS [SEQ ID NO: 344] | 0.1326
SVSAAKGKTHDHYPSGRWRDPPWHDWRAS [SEQ ID NO: 300] | 0.645

Sequence | mean_ES_IFN-γ
VGSAAKTKTHDHYGGGRMRPPPWHDWRFS [SEQ ID NO: 331] | 0.3468
VGSGAKGKTHDHNGSGRYRPPPWHDWRFS [SEQ ID NO: 299] | 0.6497
VHSAAKTKTHDHWGSGRMRDPPWHDWRGS [SEQ ID NO: 346] | 0.04292
VLSTAKGKTHDHYPGGRMRPPPWHDWRAR [SEQ ID NO: 257] | 0.918
VPSAAKGKWHDHNGSGRMRDPGWHDWRFS [SEQ ID NO: 348] | −0.009349
VPSAAKGKWHDHNPGGRHRPPPWHDWRAS [SEQ ID NO: 291] | 0.7119
VSSAAKGKTHDHNPSGRMRPPPWHDWRFS [SEQ ID NO: 322] | 0.4538
VSSAAKGKTHDHYPSGRMRPPPWHDWRGR [SEQ ID NO: 283] | 0.7475
VSSGAKGKTHDHYPSGRMRPPPWHDWRFS [SEQ ID NO: 297] | 0.6662
VSSGAKTKTHDHNPSGRMRDFKWHDWRGS [SEQ ID NO: 350] | −0.1153
VTSAAKGKTHDHYPSGRMRPPPWHDWRFS [SEQ ID NO: 312] | 0.5616
VTSAAKGKTHDHYPSGRYRPPPWHDWRGR [SEQ ID NO: 310] | 0.5718
VTSAAKGKWHDHWPSGRYRDPPWHDWRVS [SEQ ID NO: 308] | 0.588
VTSAAKTKWHDHNGSGRYRDPGWHDWRGS [SEQ ID NO: 347] | 0.01499
VTSTAKGKTHDHNWSGRYRPPPWHDWRAR [SEQ ID NO: 9] | 1.28
VVSGAKGKTHDHNWGGRYRPPPWHDWRGS [SEQ ID NO: 296] | 0.6729
VVSTAKGKTHDHYPGGRMRPPPWHDWRAR [SEQ ID NO: 251] | 0.952
VVSTAKGKTHDHYWSGRYRPPPWHDWRAR [SEQ ID NO: 259] | 0.9101
WASAAKGKTHDHYGGGRMRPPPWHDWRAR [SEQ ID NO: 323] | 0.4505
WASGAKGKTHDHNPSGRWRDPGWHDWRGS [SEQ ID NO: 330] | 0.3705
WASGAKGKTHDHWPGGRHRDPPWHDWRVS [SEQ ID NO: 271] | 0.8431

Sequence | mean_ES_IFN-γ
WASGAKGKTHDHYPSGRMRPPPWHDWRWS [SEQ ID NO: 278] | 0.7784
WASGAKGKWHDHYGGGRYRDPGWHDWRGS [SEQ ID NO: 20] | 1.135
WASGAKGKWHDHYGSGRYRPPPWHDWRGS [SEQ ID NO: 290] | 0.712
WGSAAKGKTHDHNWSGRYRPPPWHDWRVS [SEQ ID NO: 302] | 0.6264
WGSAAKGKTHDHWPSGRHRDPPWHDWRVR [SEQ ID NO: 31] | 1.044
WGSAAKGKTHDHWPSGRMRDPPWHDWRVS [SEQ ID NO: 256] | 0.9254
WGSAAKGKTHDHWPSGRYRDPKWHDWRVS [SEQ ID NO: 21] | 1.134
WGSAAKGKTHDHYGSGRYRDPPWHDWRAR [SEQ ID NO: 32] | 1.038
WGSAAKGKWHDHYPSGRMRPPPWHDWRVR [SEQ ID NO: 275] | 0.8178
WGSGAKGKTHDHNGGGRMRPPPWHDWRAS [SEQ ID NO: 334] | 0.3217
WGSGAKGKTHDHWGSGRWRDPGWHDWRGS [SEQ ID NO: 5] | 1.324
WGSGAKTKWHDHNWSGRMRPPPWHDWRFS [SEQ ID NO: 354] | −0.315
WLSAAKAKTHDHWGSGRHRPPPWHDWRGS [SEQ ID NO: 315] | 0.5302
WLSAAKGKTHDHWGSGRWRDPPWHDWRFS [SEQ ID NO: 345] | 0.06564
WLSTAKGKTHDHNWSGRYRPPPWHDWRVR [SEQ ID NO: 307] | 0.6005
WPSAAKGKTHDHNPSGRMRPPPWHDWRFS [SEQ ID NO: 26] | 1.078
WPSAAKGKTHDHYPGGRYRPPPWHDWRVR [SEQ ID NO: 295] | 0.6782
WPSGAKGKWHDHYPGGRMRPPPWHDWRFS [SEQ ID NO: 4] | 1.351
WPSGAKTKTHDHNWGGRMRDPPWHDWRGS [SEQ ID NO: 339] | 0.2814
WPSTAKGKTHDHYGGGRMRPPPWHDWRAR [SEQ ID NO: 318] | 0.5137
WQSAAKTKTHDHWPGGRMRPPPWHDWRAR [SEQ ID NO: 352] | −0.2305

Sequence | mean_ES_IFN-γ
WQSAAKTKTHDHWPSGRYRPPPWHDWRAS [SEQ ID NO: 294] | 0.6837
WSSAAKGKTHDHNPSGRHRPPPWHDWRVS [SEQ ID NO: 304] | 0.6137
WSSAAKGKTHDHNWSGRHRPPPWHDWRFS [SEQ ID NO: 250] | 0.9527
WSSAAKGKTHDHWGGGRYRPPPWHDWRAS [SEQ ID NO: 17] | 1.172
WSSAAKGKTHDHYGGGRMRPPPWHDWRAR [SEQ ID NO: 338] | 0.2829
WSSAAKGKTHDHYGSGRMRDFGWHDWRFS [SEQ ID NO: 274] | 0.8191
WSSAAKGKTHDHYPSGRHRPPPWHDWRVS [SEQ ID NO: 253] | 0.9469
WSSAAKTKWHDHNPGGRYRPPPWHDWRFR [SEQ ID NO: 332] | 0.3258
WSSGAKTKWHDHNGSGRYRPPPWHDWRGS [SEQ ID NO: 286] | 0.7241
WSSGAKTKWHDHNPGGRMRDPPWHDWRGS [SEQ ID NO: 335] | 0.3156
WSSGAKTKWHDHYGSGRHRDPKWHDWRGS [SEQ ID NO: 19] | 1.147
WSSTAKGKTHDHWPSGRYRPPPWHDWRAR [SEQ ID NO: 35] | 1.009
WSSTAKTKWHDHNGGGRMRPPPWHDWRAR [SEQ ID NO: 305] | 0.612
WTSAAKGKTHDHYPSGRYRPPPWHDWRVR [SEQ ID NO: 357] | −1.02
WTSAAKGKWHDHNGSGRHRDPPWHDWRAR [SEQ ID NO: 289] | 0.7151
WTSAAKTKWHDHYGGGRMRPPPWHDWRAR [SEQ ID NO: 272] | 0.8379
WTSGAKGKWHDHNGGGRMRDPGWHDWRFS [SEQ ID NO: 309] | 0.5851
WTSGAKGKWHDHYGGGRYRDPGWHDWRFS [SEQ ID NO: 280] | 0.7716
WVSAAKGKTHDHNGGGRWRDPGWHDWRFS [SEQ ID NO: 336] | 0.3032
WVSAAKGKTHDHWGSGRHRDPPWHDWRAR [SEQ ID NO: 30] | 1.052
WVSAAKGKWHDHYGSGRMRDPPWHDWWGS [SEQ ID NO: 24] | 1.104
